Measurements published in article PMC11002876, “KcsA-Kv1.x chimeras with complete ligand-binding sites provide improved predictivity for screening selective Kv1.x blockers” (The Journal of Biological Chemistry, 2024).
Where a SMILES comes first, the peptide text is derived from it.

Each compound was assayed against T1, KcsA-Kv1.3 T+F chimera (Streptomyces lividans, UniProt P0A334, A54D/A57S/G53D/G56T/I60S/L59F/L81M/Q58G/R52A/R64D/T61S/Y62I/Y82H) (assay: Phage ELISA-binding assay, KcsA-Kv1.3 T+F). Details: toxin displayed on M13 phage, Fig. 6D.
T1 construct: made in house; host or cells: E. coli C41(DE3) (pET45b)
T1 sequence (P0A334 1-160 R52A/G53D/A54D/G56T/A57S/Q58G/L59F/I60S/T61S/Y62I/R64D/L81M/Y82H): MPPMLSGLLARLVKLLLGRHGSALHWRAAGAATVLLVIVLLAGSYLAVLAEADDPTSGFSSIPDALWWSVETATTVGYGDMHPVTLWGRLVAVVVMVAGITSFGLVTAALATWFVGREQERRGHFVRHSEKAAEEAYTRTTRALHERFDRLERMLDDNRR
Parameters: species or system human Kv1.3 turret and filter in Streptomyces lividans KcsA
Protocol: Phage display test solutions were prepared according to routine phage display protocols ([62]). Phosphorylated and annealed oligonucleotides encoding the peptide construct were ligated into linearized pAS62 phagemid vector (https://patents.google.com/patent/WO2022144560A1/en) at a vector/insert ratio of 1:3. The final phagemid construct harbored a signal sequence followed by the peptide of interest, a linker sequence ([…]), and the C-terminal part of the P3 coat protein (amino acids: 216-424 of NP_510891.1). Chemically competent XL1-Blue E. coli cells (2022249, Agilent) were transformed with the ligation product and then streaked onto ampicillin (100 μg/ml) containing LB/Amp plates and incubated for 16 h at 37 °C. A few clones were sequenced, and a single colony with confirmed target sequence was inoculated into 3 ml 2 YT medium supplemented with 100 μg/ml ampicillin and incubated at 37 °C until the culture reached midlog phase. The culture was infected with M13KO7 helper phage (N0315S, New England Biolabs) (phage/cell ratio 10:1) and was incubated for 30 min at 37 °C. The 3 ml culture was transferred into 200 ml 2YT medium, supplemented with 100 μg/ml ampicillin and 25 μg/ml kanamycin, and incubated overnight at 37 °C. The overnight cell culture (200 ml) was pelleted by centrifugation at 8000g for 10 min in 400 ml centrifuge tubes at 4 °C. […] The particle concentrations of phage solutions were determined using a NanoDrop One C (Thermo Fisher Scientific) spectrophotometer. The phage particle concentration was assessed according to the formula: (A268–A320) × 5 × 10^12 particles/ml ([62]). […]
Phage stock solutions were diluted to working concentration with phage resuspension buffer supplemented with 2 mM DDM. […] Following blocking, the wells were washed 4× with washing buffer (300 μl TBS-Tween, 0.1% v/v) using a Wellwash Versa microplate washer (Thermo Fisher Scientific); then 50 μl phage solution (in TBS-BSA-Tween, 0.1% v/v, 2 mM DDM) at determined phage concentration was added to the wells and incubated for 1 h at room temperature on a horizontal shaker. […]
With `CC[C@H](C)[C@@H]1NC(=O)CNC(=O)[C@H](Cc2ccccc2)NC(=O)[C@H](CCC(N)=O)NC(=O)[C@H](C)NC(=O)[C@H](CCCCN)NC(=O)[C@@H]2CSSC[C@@H](C(=O)N[C@@H](Cc3ccc(O)cc3)C(=O)N3CCC[C@H]3C(=O)N[C@@H](Cc3c[nH]cn3)C(=O)O)NC(=O)[C@H](CCCCN)NC(=O)[C@@H]3CSSC[C@H](NC(=O)[C@H](CCC(N)=O)NC(=O)[C@H](CCCCN)NC(=O)[C@@H]4CCCN4C(=O)[C@H](CO)NC(=O)[C@H]([C@@H](C)O)NC(=O)[C@@H](NC(=O)[C@H](CCCCN)NC(=O)[C@@H](NC(=O)[C@H](CC(=O)O)NC(=O)[C@@H](NC(=O)[C@@H](NC(=O)[C@@H](N)[C@@H](C)O)C(C)C)[C@@H](C)CC)C(C)C)CSSC[C@H](NC(=O)[C@H](CCCCN)NC(=O)[C@H](C)NC(=O)CNC(=O)[C@H](C)NC(=O)[C@H](CCCNC(=N)N)NC1=O)C(=O)N[C@@H](CCSC)C(=O)N[C@@H](CC(N)=O)C(=O)NCC(=O)N[C@@H](CCCCN)C(=O)N3)C(=O)N[C@@H](CC(C)C)C(=O)N1CCC[C@H]1C(=O)N1CCC[C@H]1C(=O)N2` [HgTx1, Hongotoxin-1] (HELM PEPTIDE1{T.V.I.D.V.K.C.T.S.P.K.Q.C.L.P.P.C.K.A.Q.F.G.I.R.A.G.A.K.C.M.N.G.K.C.K.C.Y.P.H}$PEPTIDE1,PEPTIDE1,7:R3-29:R3|PEPTIDE1,PEPTIDE1,13:R3-34:R3|PEPTIDE1,PEPTIDE1,17:R3-36:R3$$$V2.0; N-terminus and C-terminus assumed) the “rank order of phage binding to KcsA-Kv1.3 T+F” value (shortened to “rank order of phage binding”) was “Vm24 > HgTx1 > KTX1”. In the case of `CC[C@H](C)[C@H](NC(=O)[C@H](CCC(=O)O)NC(=O)[C@@H](NC(=O)CN)C(C)C)C(=O)N[C@@H](CC(N)=O)C(=O)N[C@H](C(=O)N[C@@H](CCCCN)C(=O)N[C@H]1CSSC[C@@H]2NC(=O)[C@H](CCCCN)NC(=O)CNC(=O)[C@H](Cc3ccccc3)NC(=O)[C@H](CCCNC(=N)N)NC(=O)[C@H](CCSC)NC(=O)CNC(=O)[C@H](C)NC(=O)[C@H](CC(=O)O)NC(=O)[C@H](CCCCN)NC(=O)[C@@H]3CSSC[C@@H](C(=O)N[C@H](C(=O)N4CCC[C@H]4C(=O)N[C@@H](CCCCN)C(=O)O)[C@@H](C)O)NC(=O)[C@H](Cc4c[nH]cn4)NC(=O)[C@H](CSSC[C@H](NC(=O)[C@H](CCC(N)=O)NC(=O)[C@@H]4CCCN4C(=O)[C@H](CO)NC(=O)CNC(=O)[C@H](CO)NC1=O)C(=O)N[C@@H](CC(C)C)C(=O)N[C@@H](CCCCN)C(=O)N1CCC[C@H]1C(=O)N3)NC(=O)[C@H](CCCCN)NC(=O)[C@H](CCCNC(=N)N)NC(=O)[C@H](CC(N)=O)NC(=O)[C@H](CCSC)NC2=O)C(C)C` [KTX1, Kaliotoxin-1], the “rank order of phage binding” value is reported as “Vm24 > HgTx1 > KTX1”. With `CC[C@H](C)[C@H](NC(=O)[C@H](C)NC(=O)[C@H](C)NC(=O)[C@H](C)N)C(=O)N[C@@H](CO)C(=O)N[C@H]1CSSC[C@@H]2NC(=O)[C@H](CCCCN)NC(=O)CNC(=O)[C@H](CC(N)=O)NC(=O)[C@H](CCCCN)NC(=O)[C@@H]3CSSC[C@@H](C(N)=O)NC(=O)[C@H](Cc4ccc(O)cc4)NC(=O)[C@H](Cc4ccc(O)cc4)NC(=O)[C@@H]4CSSC[C@H](NC(=O)[C@H](CCCCN)NC(=O)[C@@H]5CCCN5C(=O)[C@@H]5CCCN5C(=O)[C@H](CSSC[C@H](NC(=O)[C@H](CCCCN)NC(=O)[C@H](CCCNC(=N)N)NC(=O)[C@H](CC(N)=O)NC(=O)[C@H](CCSC)NC2=O)C(=O)N[C@@H](CCCCN)C(=O)N4)NC(=O)[C@H](CCC(=O)O)NC(=O)[C@@H]2CCCN2C(=O)[C@H](CO)NC(=O)CNC(=O)[C@H](C(C)C)NC1=O)C(=O)N[C@@H](CCCNC(=N)N)C(=O)N[C@@H](C)C(=O)N[C@@H](CCC(N)=O)C(=O)NCC(=O)N3` [Vm24, Vm24 toxin] the “rank order of phage binding” value was “Vm24 > HgTx1 > KTX1”.
